What was measured:
[1] = system: A549-ACE2 infected with SARS-CoV-2; experiment: cell count relative to DMSO; higher = less toxic; details: 24 h
[2] = system: Caco-2; experiment: cell viability relative to DMSO; higher = less toxic; details: 72 h
[3] = system: Calu-3; experiment: as above; details: 72 h
[4] = system: HepG2; experiment: as above; details: 72 h
[5] = system: U2OS; experiment: as above; details: 72 h
[6] = system: Vero E6; experiment: as above; details: 72 h
[7] = system: A549-ACE2 infected with SARS-CoV-2; experiment: SARS-CoV-2 infection rate relative to DMSO; higher = more infection; details: 24 h
[8] = system: A549-ACE2; experiment: drug-induced phospholipidosis relative to tamoxifen; higher = more phospholipidosis
[9] = system: A549-ACE2 infected with SARS-CoV-2; experiment: morphology score (similarity to uninfected cells); higher = more like uninfected cells; details: 24 h
[10] = system: Caco-2; experiment: relative viability EC50 (midpoint between 100% and the lowest measured viability); higher = less toxic; details: 72 h
[11] = system: Calu-3; experiment: as above; details: 72 h
[12] = system: HepG2; experiment: as above; details: 72 h
[13] = system: Caco-2; experiment: drug sensitivity score (DSS) for viability; higher = more toxic; extreme values may be limits of the assay; details: 72 h
[14] = system: Calu-3; experiment: as above; details: 72 h
[15] = system: HepG2; experiment: as above; details: 72 h
[16] = system: U2OS; experiment: as above; details: 72 h
[17] = system: Vero E6; experiment: as above; details: 72 h
[18] = system: U2OS; experiment: relative viability EC50 (midpoint between 100% and the lowest measured viability); higher = less toxic; details: 72 h
[19] = system: Vero E6; experiment: as above; details: 72 h

S=C(S)N1CCCC1 [pyrrolidine-dithiocarbamate]
Details | SARS-CoV-2 infection rate, [7] [%] | cell count, [1] [%] | cell viability, [2] [%] | cell viability, [3] [%] | cell viability, [4] [%] | cell viability, [5] [%] | cell viability, [6] [%] | morphology score, [9]
1 nM | – | – | 101 | 93.7 | 95.5 | 101 | 102 | –
10 nM | – | – | 101 | 94.2 | 93.4 | 99.3 | 106 | –
0.1 µM | 108 | 101 | – | – | – | – | – | -0.05
100 nM | – | – | 90.2 | 102 | 96 | 102 | 101 | –
0.3 µM | 93 | 105 | – | – | – | – | – | 0.28
1 µM | 85 | 103 | – | – | – | – | – | 0.32
1000 nM | – | – | 30.4 | 99.8 | 106 | 95.4 | 103 | –
3 µM | 83 | 104 | – | – | – | – | – | 0.39
10000 nM | – | – | 15.7 | 41.7 | 13.1 | 58.4 | 63 | –

drug-induced phospholipidosis [%], [8]
Details | 0.3 µM | 0.833333 µM | 6.66667 µM | 10 µM | 30 µM
24 h | 1.65 | -0.57 | 5.92 | 3.64 | -1.59
48 h | 1.79 | 0.61 | – | – | –
72 h | 3.8 | 0.446 | – | – | –

Details | drug sensitivity score | relative viability EC50 [nM]
[10] | – | 368
[11] | – | 3140
[12] | – | 3530
[13] | 14.2 | –
[14] | 3.2 | –
[15] | 4.4 | –
[16] | 2.8 | –
[17] | 1.6 | –

CCC1=C[C@@H]2CN(C1)Cc1c([nH]c3ccccc13)[C@@](C(=O)OC)(c1cc3c(cc1OC)N(C)[C@H]1[C@@](O)(C(=O)OC)[C@H](OC(C)=O)[C@]4(CC)C=CCN5CC[C@]31[C@@H]54)C2 [vinorelbine]
cell viability [%]
Details | [2] | [3] | [4] | [5] | [6]
1 nM | 98.1 | 97.5 | 103 | 95.8 | 104
10 nM | 94.7 | 100 | 92.8 | 97 | 101
100 nM | 58.7 | 72.2 | 58.6 | 77.5 | 99.5
1000 nM | 53 | 51.1 | 32.7 | 32.4 | 54
10000 nM | 45.1 | 40.5 | 39 | 22.7 | 31.2

Details | drug sensitivity score | relative viability EC50 [nM]
[10] | – | 46.5
[11] | – | 137
[12] | – | 65.9
[13] | 15.3 | –
[14] | 12.6 | –
[15] | 17.5 | –
[16] | 15.2 | –
[17] | 9.2 | –
[18] | – | 205
[19] | – | 754
